This note sets out measurements from US12528786B2, “Plasma kallikrein inhibitors” (Merck Sharp & Dohme LLC, priority 2020, dated 2026).

The target of the test is T1, Human plasma kallikrein (Homo sapiens, UniProt P03952).
T1 construct: yields a heavy chain (371 amino acids) and a light chain (248 amino acids); purchased Enzyme Research Laboratories
Put plainly: Kallikrein Assay (fluorogenic substrate hydrolysis, AFC release). Format: biochemical. The settings on record: purified Human plasma kallikrein 0.5 nM; substrate Acetyl-K—P—R-AFC 100 mM; 50 mM HEPES pH 7.4. In short, it runs like this:
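Purified human plasma kallikrein (0.5 nM final) with Acetyl-K-P-R-AFC substrate (final ≤0.2 Km) in 50 mM HEPES pH 7.4, 150 mM NaCl, 5 mM CaCl2, 0.1% PEG 8000, after enzyme–inhibitor equilibration; room temperature or 37° C. AFC fluorescence (405 Ex/510 Em nm) under linear conditions; IC50 by four-parameter fit, Ki via Cheng-Prusoff.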

T1 sequence (P03952 391-638 limits assumed): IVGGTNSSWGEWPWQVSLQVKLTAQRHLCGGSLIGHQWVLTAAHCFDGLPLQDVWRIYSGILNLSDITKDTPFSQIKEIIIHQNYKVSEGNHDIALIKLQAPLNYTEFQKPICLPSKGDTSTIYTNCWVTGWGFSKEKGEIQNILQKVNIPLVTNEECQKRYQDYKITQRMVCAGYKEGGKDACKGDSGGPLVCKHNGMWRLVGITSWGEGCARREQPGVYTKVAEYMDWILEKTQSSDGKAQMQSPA
T1 sequence (P03952 20-390 partner limits assumed): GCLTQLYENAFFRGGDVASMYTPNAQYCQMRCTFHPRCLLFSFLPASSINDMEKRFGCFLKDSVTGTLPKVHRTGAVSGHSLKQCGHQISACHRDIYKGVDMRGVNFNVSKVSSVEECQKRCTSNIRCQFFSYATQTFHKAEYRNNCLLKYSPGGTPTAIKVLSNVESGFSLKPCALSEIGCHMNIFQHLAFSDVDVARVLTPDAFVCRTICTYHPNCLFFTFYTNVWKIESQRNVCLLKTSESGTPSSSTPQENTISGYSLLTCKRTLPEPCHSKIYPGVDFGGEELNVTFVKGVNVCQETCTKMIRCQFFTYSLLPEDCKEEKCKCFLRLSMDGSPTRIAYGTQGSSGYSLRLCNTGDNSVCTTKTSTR

For orientation: IC50 means the concentration at which inhibition is half-maximal. Consider `Cc1cc(N2C[C@H]3C[C@H]3C2=O)ncc1[C@@H](C)c1cc(C(=O)N[C@H]2C[C@@H](c3cc(Cl)ccc3C#N)C2)n(C)n1` [Example 174, N-((cis)-3-(5-chloro-2-cyanophenyl)cyclobutyl)-1-methyl-3-((R)-1-(4-methyl-6-((1R,5S)-2-oxo-3-azabicyclo[3.1.0]hexan-3-yl)pyridin-3-yl)ethyl)-1H-pyrazole-5-carboxamide], for which half-maximal inhibition (IC50) required 26.9 nM.

In turn, “N-((cis)-3-(5-chloro-2-cyanophenyl)cyclobutyl)-1-((R)-3-((1R,5S)-2-oxo-3-azabicyclo[3.1.0]hexan-3-yl)-6,7-dihydro-5H-cyclopenta[c]pyridin-7-yl)-1H-1,2,3-triazole-4-carboxamide and N-((cis)-3-(5-chloro-2-cyanophenyl)cyclobutyl)-1-((S)-3-((1R,5S)-2-oxo-3-azabicyclo[3.1.0]hexan-3-yl)-6,7-dihydro-5H-cyclopenta[c]pyridin-7-yl)-1H-1,2,3-triazole-4-carboxamide [Example 153]” gave a half-maximal inhibitory concentration (IC50) of 23.9 nM.
